Assay results as given in patent US20250381243A1, “HETEROCYCLES AND USES THEREOF” (Kumquat Biosciences Inc., priority 2022, published 2025).

System: A549 cells
Assay: Cell proliferation assay (CellTiter-Glo), cells with K-Ras G12S mutation
Type: cell-based
Conditions: Homo sapiens, 500 nM to 5 μM (mixed units), read-out: Inhibition of A549 Cells (IC50)
Procedure: A549 (ATCC CRL-185) and LS123 (ATCC CRL-255) cell lines comprise a G12S mutation and can be used to assess Ras cellular signaling in vitro, e.g., in response to treatment with a compound described herein. A549 culture medium is prepared with RPMI-1640 and 10% heat-inactivated FBS. LS123 culture medium is prepared with RPMI-1640 and 10% heat-inactivated FBS. A CellTiter-Glo (CTG) luminescent based assay (Promega) is used to assess growth of the cells, as a measurement of the ability of the compounds herein to inhibit Ras signaling in the cells. The cells (e.g., 800 per well) are seeded in their respective culture medium in standard tissue culture-treated 384-well format plates (Falcon #08-772-116) or ultra-low attachment surface 384-well format plates (S-Bio #MS-9384WZ). The day after plating, cells are treated with a dilution series (e.g., a 10 point 3-fold dilution series) of the compounds herein (e.g., approximately 40 μl final volume per well). Cell viability can be monitored (e.g., approximately 6 days later) according to the manufacturer's recommended instructions, where CellTiter-Glo reagent is added (e.g., approximately 10 μl), vigorously mixed, covered, and placed on a plate shaker (e.g., approximately for 20 min) to ensure sufficient cell lysis prior to assessment of luminescent signal. The IC50 values are determined using the four parameter fit. The resulting IC50 value is a measurement of the ability of the test compound to reduce cell growth of Ras-driven cells (e.g., tumor cell lines) in vitro and/or in vivo.

IC50 [nM] | Structure (SMILES)
500 to 5000 | CC1CC(N(C)C(=O)n2cnc(Cl)n2)CN1c1nc(OC[C@@]23CCCN2C[C@H](F)C3)nc2c(F)c(-c3ccc(F)c4sc(N)c(C#N)c34)c(Cl)cc12 (single isomer, unassigned) [Compound 105]
500 to 5000 | CC([C@H]1CCN1C(=O)n1cnc(Cl)n1)N(C)c1nc(OC[C@@]23CCCN2C[C@H](F)C3)nc2c(F)c(-c3ccc(F)c4sc(N)c(C#N)c34)c(Cl)cc12 (stereo partly drawn) [Compound 172, (4R)-2-amino-4-(6-chloro-4-((1-(1-(3-chloro-1H-1,2,4-triazole-1-carbonyl)azetidin-2-yl)ethyl)(methyl)amino)-8-fluoro-2-(((2R,7aS)-2-fluorotetrahydro-1H-pyrrolizin-7a (5H)-yl)methoxy)quinazolin-7-yl)-7-fluorobenzo[b]thiophene-3-carbonitrile]

Same assay, conditions: Homo sapiens, ≤500 nM, read-out: Inhibition of A549 Cells (IC50)

Structure (SMILES) | IC50 [nM]
CC(C)[C@@H]1[C@H](CN(C)c2nc(OC[C@@]34CCCN3C[C@H](F)C4)nc3c(F)c(-c4ccc(F)c5sc(N)c(C#N)c45)c(Cl)cc23)CN1C(=O)n1cnc(Cl)n1 [Compound 208, 2-amino-4-(6-chloro-4-((((2R,3R)-1-(3-chloro-1H-1,2,4-triazole-1-carbonyl)-2-isopropylazetidin-3-yl)methyl)(methyl)amino)-8-fluoro-2-(((2R,7aS)-2-fluorotetrahydro-1H-pyrrolizin-7a(5H)-yl)methoxy)quinazolin-7-yl)-7-fluorobenzo[b]thiophene-3-carbonitrile] | ≤ 500
CC(C)N(C(=O)n1cncn1)[C@H]1CCN(c2nc(OC[C@@]34CCCN3C[C@H](F)C4)nc3c(F)c(-c4ccc(F)c5sc(N)c(C#N)c45)c(Cl)cc23)C1 [Compound 180, N-((3S)-1-(7-(2-amino-3-cyano-7-fluorobenzo[b]thiophen-4-yl)-6-chloro-8-fluoro-2-(((2R,7aS)-2-fluorotetrahydro-1H-pyrrolizin-7a(5H)-yl)methoxy)quinazolin-4-yl)pyrrolidin-3-yl)-N-isopropyl-1H-1,2,4-triazole-1-carboxamide] | ≤ 500
CC(C)[C@H]1N(C(=O)n2cnc(Cl)n2)C[C@]12C[C@@H](CC#N)CN(c1nc(OC[C@@]34CCCN3C[C@H](F)C4)nc3c(F)c(-c4ccc(F)c5sc(N)c(C#N)c45)c(Cl)cc13)C2 [Compound 137, 2-amino-4-(6-chloro-4-((1R,4R,8S)-2-(3-chloro-1H-1,2,4-triazole-1-carbonyl)-8-(cyanomethyl)-1-isopropyl-2,6-diazaspiro[3.5]nonan-6-yl)-8-fluoro-2-(((2R,7aS)-2-fluorotetrahydro-1H-pyrrolizin-7a(5H)-yl)methoxy)quinazolin-7-yl)-7-fluorobenzo[b]thiophene-3-carbonitrile] | ≤ 500
C[C@H]1CC[C@]2(CN(C(=O)n3cnc(F)n3)[C@@H]2C2(C)CC2)CN1c1nc(OC[C@@]23CCCN2C[C@H](F)C3)nc2c(F)c(-c3ccc(F)c4sc(N)c(C#N)c34)c(Cl)cc12 [Compound 185, 2-amino-4-(6-chloro-8-fluoro-4-((1R,4R,7S)-2-(3-fluoro-1H-1,2,4-triazole-1-carbonyl)-7-methyl-1-(1-methylcyclopropyl)-2,6-diazaspiro[3.5]nonan-6-yl)-2-(((2R,7aS)-2-fluorotetrahydro-1H-pyrrolizin-7a(5H)-yl)methoxy)quinazolin-7-yl)-7-fluorobenzo[b]thiophene-3-carbonitrile] | ≤ 500

Results, then the compound that gave them:

IC50 [nM] | Structure (SMILES)
≤ 500 | CC(C)[C@@H]1[C@H](CN(C)c2nc(OC[C@@]34CCCN3C[C@H](F)C4)nc3c(F)c(-c4ccc(F)c5sc(N)c(C#N)c45)c(Cl)cc23)CN1C(=O)n1cnc(F)n1 [Compound 144, 2-amino-4-(6-chloro-8-fluoro-4-((((2R,3R)-1-(3-fluoro-1H-1,2,4-triazole-1-carbonyl)-2-isopropylazetidin-3-yl)methyl)(methyl)amino)-2-(((2R,7aS)-2-fluorotetrahydro-1H-pyrrolizin-7a(5H)-yl)methoxy)quinazolin-7-yl)-7-fluorobenzo[b]thiophene-3-carbonitrile]
≤ 500 | COCC1([C@H]2N(C(=O)n3cnc(F)n3)C[C@]23CC[C@H](C)N(c2nc(OC[C@@]45CCCN4C[C@H](F)C5)nc4c(F)c(-c5ccc(F)c6sc(N)c(C#N)c56)c(Cl)cc24)C3)CC1 [Compound 129, 2-amino-4-(6-chloro-8-fluoro-4-((1S,4R,7S)-2-(3-fluoro-1H-1,2,4-triazole-1-carbonyl)-1-(1-(methoxymethyl)cyclopropyl)-7-methyl-2,6-diazaspiro[3.5]nonan-6-yl)-2-(((2R,7aS)-2-fluorotetrahydro-1H-pyrrolizin-7a(5H)-yl)methoxy)quinazolin-7-yl)-7-fluorobenzo[b]thiophene-3-carbonitrile]
≤ 500 | CC(C)[C@H]1N(C(=O)n2cnc(Cl)n2)C[C@]12CCCCN(c1nc(OC[C@@]34CCCN3C[C@H](F)C4)nc3c(F)c(-c4ccc(F)c5sc(N)c(C#N)c45)c(Cl)cc13)C2 [Compound 142, 2-amino-4-(6-chloro-4-((1R,4R)-2-(3-chloro-1H-1,2,4-triazole-1-carbonyl)-1-isopropyl-2,6-diazaspiro[3.6]decan-6-yl)-8-fluoro-2-(((2R,7aS)-2-fluorotetrahydro-1H-pyrrolizin-7a(5H)-yl)methoxy)quinazolin-7-yl)-7-fluorobenzo[b]thiophene-3-carbonitrile]
≤ 500 | CN(C[C@@H]1CN(C(=O)n2cnc(F)n2)[C@@H]1C1(C(F)F)CC1)c1nc(OC[C@@]23CCCN2C[C@H](F)C3)nc2c(F)c(-c3ccc(F)c4sc(N)c(C#N)c34)c(Cl)cc12 [Compound 186, 2-amino-4-(6-chloro-4-((((2S,3R)-2-(1-(difluoromethyl)cyclopropyl)-1-(3-fluoro-1H-1,2,4-triazole-1-carbonyl)azetidin-3-yl)methyl)(methyl)amino)-8-fluoro-2-(((2R,7aS)-2-fluorotetrahydro-1H-pyrrolizin-7a(5H)-yl)methoxy)quinazolin-7-yl)-7-fluorobenzo[b]thiophene-3-carbonitrile]
≤ 500 | CN(C[C@@H]1CN(C(=O)n2cnc(F)n2)[C@@H]1C(C)(C)C)c1nc(OC[C@@]23CCCN2C[C@H](F)C3)nc2c(F)c(-c3ccc(F)c4sc(N)c(C#N)c34)c(Cl)cc12 [Compound 152, 2-amino-4-(4-((((2S,3R)-2-(tert-butyl)-1-(3-fluoro-1H-1,2,4-triazole-1-carbonyl)azetidin-3-yl)methyl)(methyl)amino)-6-chloro-8-fluoro-2-(((2R,7aS)-2-fluorotetrahydro-1H-pyrrolizin-7a(5H)-yl)methoxy)quinazolin-7-yl)-7-fluorobenzo[b]thiophene-3-carbonitrile]
≤ 500 | COCC1([C@H]2N(C(=O)n3cnc(F)n3)C[C@]23CCCCN(c2nc(OC[C@@]45CCCN4C[C@H](F)C5)nc4c(F)c(-c5ccc(F)c6sc(N)c(C#N)c56)c(Cl)cc24)C3)CC1 [Compound 219, 2-amino-4-(6-chloro-8-fluoro-4-((1S,4R)-2-(3-fluoro-1H-1,2,4-triazole-1-carbonyl)-1-(1-(methoxymethyl)cyclopropyl)-2,6-diazaspiro[3.6]decan-6-yl)-2-(((2R,7aS)-2-fluorotetrahydro-1H-pyrrolizin-7a(5H)-yl)methoxy)quinazolin-7-yl)-7-fluorobenzo[b]thiophene-3-carbonitrile]
≤ 500 | CCC1N(C(=O)n2cncn2)CC12CN(c1nc(OC[C@@]34CCCN3C[C@H](F)C4)nc3c(F)c(-c4ccc(F)c5sc(N)c(C#N)c45)c(Cl)cc13)CCO2 (stereo partly drawn) [Compound 112, 2-amino-4-(6-chloro-4-(1-ethyl-2-(1H-1,2,4-triazole-1-carbonyl)-5-oxa-2,8-diazaspiro[3.5]nonan-8-yl)-8-fluoro-2-(((2R,7aS)-2-fluorotetrahydro-1H-pyrrolizin-7a(5H)-yl)methoxy)quinazolin-7-yl)-7-fluorobenzo[b]thiophene-3-carbonitrile]
≤ 500 | CC(C)C1N(C(=O)n2cnc(Cl)n2)CC12CC(CC#N)CN(c1nc(OC[C@@]34CCCN3C[C@H](F)C4)nc3c(F)c(-c4ccc(F)c5sc(N)c(C#N)c45)c(Cl)cc13)C2 (single isomer, unassigned) [Compound 117]
≤ 500 | CC(C)[C@H]1N(C(=O)n2cnc(C(F)F)n2)C[C@]12CC[C@H](C)N(c1nc(OC[C@@]34CCCN3C[C@H](F)C4)nc3c(F)c(-c4ccc(F)c5sc(N)c(C#N)c45)c(Cl)cc13)C2 (atropisomer, axis not shown; (aS)) [Compound 109, (R)-2-amino-4-(6-chloro-4-((1R,4R,7S)-2-(3-(difluoromethyl)-1H-1,2,4-triazole-1-carbonyl)-1-isopropyl-7-methyl-2,6-diazaspiro[3.5]nonan-6-yl)-8-fluoro-2-(((2R,7aS)-2-fluorotetrahydro-1H-pyrrolizin-7a(5H)-yl)methoxy)quinazolin-7-yl)-7-fluorobenzo[b]thiophene-3-carbonitrile]
